Measured values published in patent publication US20110306606A1, “NOVEL 2,6-SUBSTITUTED-3-NITROPYRIDINE DERIVATIVE, METHOD FOR PREPARING SAME, AND PHARMACEUTICAL COMPOSITION INCLUDING SAME” (priority 2008, published 2011).
Like-named read-outs stand apart in the source and are kept apart here.

How the values were obtained:
[1] = system: Osteoblasts (Calvarial cells); test: Alkaline phosphatase (ALP) activity in osteoblasts (Calvarial cells); format: cell-based, mice; settings: 1 μM compound, 3 days; for activity at 1 µM: Mus musculus, 72 h, Calvarial cell, read-out: ALP activity (1 μM, % of Control) Calvarial cell
Method in brief: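 Primary calvarial osteoblasts or MC3T3-E1 cells in α-MEM with 10% FBS were treated with 1 μM compound, against a 0.1% DMSO vehicle. Cell lysates were incubated with p-nitrophenylphosphate at 37° for 30 minutes and read at 405 nm. ALP activity was expressed as p-nitrophenol/μg protein/min and reported as % change versus vehicle.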

[2] = system: formation of osteoclasts in co-culture of bone marrow cells and osteoblasts; test: Osteoclastogenesis inhibition via co-culture system (TRAP staining); format: cell-based, mice; settings: 1 μM compound, 7 days co-culture, TRAP-positive multinucleated osteoclasts vs vehicle control; for inhibition at 1 µM: Mus musculus, Osteoclast, 168 h
Method in brief: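 Bone marrow cells from male ddY mice were co-cultured with osteoblasts for 7 days in α-MEM/10% FBS with 10^−8 M 1α,25-dihydroxyvitamin D3 and dexamethasone. Compound was present at 1 μM final and refreshed every 2–3 days. TRAP-positive cells with 6–7 nuclei were counted, with % inhibition relative to DMSO vehicle (n=4).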

[3] = system: Osteoblasts (Calvarial cells); settings: ICR, mouse, 72 h, 1 μM
MC3T3-E1 cells = test: Alkaline phosphatase (ALP) activity in MC3T3-E1 cells; format: cell-based; settings: 1 μM compound, 3 days; for activity at 1 µM: Mus musculus, 72 h, MC3T3-E1 cell, read-out: ALP activity (1 μM, % of Control) MC3T3-E1 cell
Experimental: Differentiation and activity of osteoblasts were indirectly evaluated by measuring an ALP activity having a close relationship with osteogenesis.
Osteoblasts (Calvarial cells) prepared in Experimental Example 1 and MC3T3-E1 cells (available from RIKEN Cell Bank, Japan) were collected in α-MEM supplemented with 10% FBS, followed by cell counting. The cells were dispensed into 24-well cultureware at a density of 2×10^4 cells/well. After culturing of the cells for 24 hours, the culture media were discarded and replaced with fresh media in which test compounds were diluted to a concentration of 1 μM (1 mL/well). In addition, the vehicle control group containing 0.1% DMSO was also treated. […] When the experiment was terminated, the supernatant was removed and the cells were washed three times with cold phosphate buffer at 4°. 0.2% Triton X-100 was added to the washed cells which were then subjected to three cycles of freezing at −70° and thawing at room temperature for the complete lysis of cells. The cell extracts were pooled and centrifuged to collect the cell supernatant which was used for the measurement of ALP activity and proteins. The protein concentration was measured using a BCA assay kit (manufactured by Sigma-Aldrich). For the measurement of ALP activity, p-nitrophenylphosphate was added to the cell supernatant which was then incubated at 37° for 30 minutes, and the reaction was terminated with the addition of 50 μL of 0.2N sodium hydroxide. The standard curve was plotted at the absorbance of 405 nm using p-nitrophenol as a standard material and then the absorbance of test materials thus reacted was measured to determine the production amount of p-nitrophenol.
The ALP activity was calculated by dividing the amount of p-nitrophenol produced from each test material by the protein amount and the reaction time. Therefore, the unit of ALP activity was given in terms of p-nitrophenol/μg protein/min. The results are given in Tables 28-1 and 28-2 where the ALP activity unit of each test material was given in terms of % change through the comparison between the individual test materials and the vehicle control group.

[4] = system: Osteoblasts (Calvarial cells); test: Cytotoxicity test (MTT); settings: 1 μM compound, 72 hours, in comparison with vehicle control

| SMILES | activity at 1 µM [1] [%] | inhibition at 1 µM [2] [%] | Cell viability (%) Calvarial cell [3] [%] | also measured |
| --- | --- | --- | --- | --- |
| Cc1ccc(Nc2nc(N3CCC(N)CC3)ccc2[N+](=O)[O-])cc1 [Compound 13, 2-(4-methylphenylamino)-6-(4-aminopiperidino)-3-nitropyridine] | 115 | 92 | 97 |  |
| COc1ccc(Nc2nc(NC(C)C)ccc2[N+](=O)[O-])cc1 [Compound 16, 2-(4-methoxyphenylamino)-6-(isopropylamino)-3-nitropyridine] |  |  | 100 | activity at 1 µM (MC3T3-E1 cells): 118% |
| COc1ccc(Nc2nc(N(C)CC3OCCO3)ccc2[N+](=O)[O-])cc1 [Compound 18, 2-(4-methoxyphenylamino)-6-[(N-[1,3]-dioxolan-2-ylmethyl)methylamino]-3-nitropyridine] |  |  |  | ALP activity (1 μM, % of Control) MC3T3-E1 cell (MC3T3-E1 cells): 113 % of Control; Cell viability (%) Calvarial cell [4]: 91% |
| COc1ccc(Nc2nc(N3CCN=C3C)ccc2[N+](=O)[O-])cc1 [Compound 20, 2-(4-methoxyphenylamino)-6-[(2-methyl-4,5-dihydro)imidazol-1-yl]-3-nitropyridine] |  |  |  | ALP activity (1 μM, % of Control) MC3T3-E1 cell (MC3T3-E1 cells): 124 % of Control |
| COc1ccc(Nc2nc(-n3ccnc3C(C)C)ccc2[N+](=O)[O-])cc1 [Compound 21, 2-(4-methoxyphenylamino)-6-[(2-isopropyl)imidazol-1-yl]-3-nitropyridine] |  |  | 90 | activity at 1 µM (MC3T3-E1 cells): 124% |
| CC(C)(C)c1ccc(Nc2nc(N3CCC(N)CC3)ccc2[N+](=O)[O-])cc1 [Compound 43, 2-[4-(t-butyl)phenylamino]-6-(4-aminopiperidino)-3-nitropyridine] | 121 | 100 | 114 |  |
| CC(C)CNc1ccc([N+](=O)[O-])c(Nc2ccc(N)cc2)n1 [Compound 59, 2-[4-(amino)phenylamino]-6-(isobutylamino)-3-nitropyridine] | 115 | 81 | 99 |  |
| CNc1ccc([N+](=O)[O-])c(Nc2cccc(C(C)=O)c2)n1 [Compound 96, 2-(3-acetylphenylamino)-6-(methylamino)-3-nitropyridine] |  |  | 90 | activity at 1 µM (MC3T3-E1 cells): 137% |
| CC(=O)c1cccc(Nc2nc(NC(C)C)ccc2[N+](=O)[O-])c1 [Compound 97, 2-(3-acetylphenylamino)-6-(isopropylamino)-3-nitropyridine] | 188 | 80 | 114 |  |
| CC(=O)c1cccc(Nc2nc(N3CCN=C3C)ccc2[N+](=O)[O-])c1 [Compound 100, 2-(3-acetylphenylamino)-6-[(2-methyl-4,5-dihydro)imidazol-1-yl]-3-nitropyridine] |  |  |  | ALP activity (1 μM, % of Control) MC3T3-E1 cell (MC3T3-E1 cells): 126 % of Control; Cell viability (%) Calvarial cell [4]: 91% |
| CC(=O)c1cccc(Nc2nc(-n3ccnc3C(C)C)ccc2[N+](=O)[O-])c1 [Compound 101, 2-(3-acetylphenylamino)-6-[(2-isopropyl)imidazol-1-yl]-3-nitropyridine] |  |  | 92 | activity at 1 µM (MC3T3-E1 cells): 123% |
| CC(=O)c1cccc(Nc2nc(N3CCNCC3)ccc2[N+](=O)[O-])c1 [Compound 106, 2-(3-acetylphenylamino)-6-(piperazin-1-yl)-3-nitropyridine] | 116 | 87 | 81 |  |
| CNc1ccc([N+](=O)[O-])c(Nc2ccc(N3CCOCC3)cc2)n1 [Compound 108, 2-(4-morpholinophenylamino)-6-(methylamino)-3-nitropyridine] |  |  | 100 | activity at 1 µM (MC3T3-E1 cells): 111% |
| O=[N+]([O-])c1ccc(N2CCNCC2)nc1Nc1ccc(N2CCOCC2)cc1 [Compound 120, 2-(4-morpholinophenylamino)-6-(piperazin-1-yl)-3-nitropyridine] | 115 | 63 | 94 |  |
| NC1CCN(c2ccc([N+](=O)[O-])c(Nc3ccc(N4CCOCC4)cc3)n2)CC1 [Compound 121, 2-(4-morpholinophenylamino)-6-(4-aminopiperidino)-3-nitropyridine] | 127 | 89 | 100 |  |
| CNc1ccc([N+](=O)[O-])c(Nc2ccc(-c3csc(C)n3)cc2)n1 [Compound 132, 2-[4-(2-methylthiazol-4-yl)phenylamino]-6-(methylamino)-3-nitropyridine] | 198 | 80 | 101 |  |
| Cc1nc(-c2ccc(Nc3nc(N4CCC(O)CC4)ccc3[N+](=O)[O-])cc2)cs1 [Compound 135, 2-[4-(2-methylthiazol-4-yl)phenylamino]-6-(4-hydroxypiperidino)-3-nitropyridine] | 113 | 93 | 106 |  |
| Cc1nc(-c2ccc(Nc3nc(NCc4cccnc4)ccc3[N+](=O)[O-])cc2)cs1 [Compound 138, 2-[4-(2-methylthiazol-4-yl)phenylamino]-6-[(3-pyridyl)methylamino]-3-nitropyridine] | 121 | 98 | 94 |  |
| Cc1nc(-c2ccc(Nc3nc(NCc4ccncc4)ccc3[N+](=O)[O-])cc2)cs1 [Compound 139, 2-[4-(2-methylthiazol-4-yl)phenylamino]-6-[(4-pyridyl)methylamino]-3-nitropyridine] | 122 | 99 | 95 |  |
| Cc1nc(-c2ccc(Nc3nc(N4CCOCC4)ccc3[N+](=O)[O-])cc2)cs1 [Compound 145, 2-[4-(2-methylthiazol-4-yl)phenylamino]-6-morpholino-3-nitropyridine] | 117 | 94 | 96 |  |
| CC(C)(C)Nc1ccc([N+](=O)[O-])c(Nc2ccc(N3CCCCC3)c(F)c2)n1 [Compound 231, 2-[(3-fluoro-4-piperidino)phenylamino]-6-(t-butylamino)-3-nitropyridine] |  |  |  | ALP activity (1 μM, % of Control) Calvarial cell [1]: 121 % of Control; Osteoclastogenesis inhibition (%) 1 μM [2]: 82%; Cell viability (%) Calvarial cell [4]: 112% |
| O=[N+]([O-])c1ccc(N2CCOCC2)nc1Nc1ccc(N2CCCCC2)c(F)c1 [Compound 235, 2-[(3-fluoro-4-piperidino)phenylamino]-6-morpholino-3-nitropyridine] |  |  |  | ALP activity (1 μM, % of Control) Calvarial cell [1]: 121 % of Control; Osteoclastogenesis inhibition (%) 1 μM [2]: 86%; Cell viability (%) Calvarial cell [4]: 105% |
| CNc1ccc([N+](=O)[O-])c(Nc2ccc(N3CCC(O)CC3)c(F)c2)n1 [Compound 236, 2-{[3-fluoro-4-(4-hydroxypiperidino)]phenylamino}-6-(methylamino)-3-nitropyridine] |  |  |  | ALP activity (1 μM, % of Control) Calvarial cell [1]: 209 % of Control; Osteoclastogenesis inhibition (%) 1 μM [2]: 76%; Cell viability (%) Calvarial cell [4]: 91% |
| CN1CCN(c2ccc([N+](=O)[O-])c(Nc3ccc(N4CCC(O)CC4)c(F)c3)n2)CC1 [Compound 244, 2-{[3-fluoro-4-(4-hydroxypiperidino)]phenylamino}-6-(4-methylpiperazin-1-yl)-3-nitropyridine] |  |  |  | ALP activity (1 μM, % of Control) Calvarial cell [1]: 118 % of Control; Osteoclastogenesis inhibition (%) 1 μM [2]: 62%; Cell viability (%) Calvarial cell [4]: 99% |
